Source: ChEMBL document CHEMBL4507283, “Data for DCP probe BI-1935” (2021)

What was measured:
[1] = target: Cannabinoid receptor 1 (Homo sapiens) (UniProt P21554); test: CB1/H Eurofins-Panlabs selectivity data (BI); conditions: Compound concentration 10.0 uM
[2] = target: Endothelin-converting enzyme 1 (Homo sapiens) (UniProt P42892); test: ECE-1 (HU) Eurofins-Panlabs selectivity data (BI); conditions: Compound concentration 10.0 uM
[3] = target: Amine oxidase [flavin-containing] A (MAO-A) (Homo sapiens, UniProt P21397); test: MAOA Eurofins-Panlabs selectivity data (BI); set-up: mode of action inhibitor; conditions: compound concentration 10 uM, read-out: % Ctrl
[4] = target: Activin receptor type-2A (Homo sapiens) (UniProt P27037); conditions: Compound concentration 1000.0 nM
Chain of Activin receptor type-2A (Homo sapiens) (P27037 whole entry): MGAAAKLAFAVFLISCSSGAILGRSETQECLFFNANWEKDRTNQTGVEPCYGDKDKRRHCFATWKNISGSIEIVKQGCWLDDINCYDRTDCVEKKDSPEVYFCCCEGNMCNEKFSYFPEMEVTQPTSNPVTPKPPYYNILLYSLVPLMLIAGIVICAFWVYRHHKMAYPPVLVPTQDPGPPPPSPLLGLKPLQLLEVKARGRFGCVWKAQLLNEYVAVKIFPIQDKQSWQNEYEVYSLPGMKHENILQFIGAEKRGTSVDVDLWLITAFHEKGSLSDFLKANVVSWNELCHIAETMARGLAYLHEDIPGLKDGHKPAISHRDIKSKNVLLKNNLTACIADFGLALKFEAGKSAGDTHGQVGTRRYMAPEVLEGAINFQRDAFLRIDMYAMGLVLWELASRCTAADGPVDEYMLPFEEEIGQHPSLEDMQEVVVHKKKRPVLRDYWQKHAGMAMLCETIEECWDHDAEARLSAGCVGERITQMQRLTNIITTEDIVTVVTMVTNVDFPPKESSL

[5] = target: RAC-gamma serine/threonine-protein kinase (Homo sapiens) (UniProt Q9Y243); conditions: Compound concentration 1000.0 nM
Chain of RAC-gamma serine/threonine-protein kinase (Homo sapiens) (Q9Y243 whole entry): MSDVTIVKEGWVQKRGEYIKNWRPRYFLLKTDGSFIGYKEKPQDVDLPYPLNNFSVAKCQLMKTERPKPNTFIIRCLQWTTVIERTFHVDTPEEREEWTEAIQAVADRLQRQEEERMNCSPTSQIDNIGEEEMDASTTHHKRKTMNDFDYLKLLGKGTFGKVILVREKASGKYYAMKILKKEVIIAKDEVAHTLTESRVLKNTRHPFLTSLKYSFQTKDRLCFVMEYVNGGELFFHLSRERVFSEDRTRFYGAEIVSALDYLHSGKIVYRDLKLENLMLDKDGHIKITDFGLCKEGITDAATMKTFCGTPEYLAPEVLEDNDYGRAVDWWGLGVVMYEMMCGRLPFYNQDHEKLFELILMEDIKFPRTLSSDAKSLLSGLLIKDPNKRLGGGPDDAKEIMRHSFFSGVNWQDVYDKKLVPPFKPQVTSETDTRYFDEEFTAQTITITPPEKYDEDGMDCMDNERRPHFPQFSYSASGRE

[6] = target: Calcium/calmodulin-dependent protein kinase type 1G (Homo sapiens) (UniProt Q96NX5); conditions: Compound concentration 1000.0 nM
[7] = target: Calcium/calmodulin-dependent protein kinase type II subunit beta (Homo sapiens) (UniProt Q13554); conditions: Compound concentration 1000.0 nM
[8] = target: Calcium/calmodulin-dependent protein kinase kinase 2 (Homo sapiens) (UniProt Q96RR4); conditions: Compound concentration 1000.0 nM
[9] = target: Casein kinase II subunit alpha' (Homo sapiens) (UniProt P19784); conditions: Compound concentration 1000.0 nM
[10] = tested on: Epidermal growth factor receptor (Homo sapiens), P00533 [L861Q]; conditions: Compound concentration 1000.0 nM
[11] = target: Ephrin type-A receptor 4 (Homo sapiens) (UniProt P54764); conditions: Compound concentration 1000.0 nM
[12] = target: Ephrin type-B receptor 6 (Homo sapiens) (UniProt O15197); conditions: Compound concentration 1000.0 nM
[13] = target: Serine/threonine-protein kinase/endoribonuclease IRE1 (Homo sapiens) (UniProt O75460); conditions: Compound concentration 1000.0 nM
[14] = target: Fibroblast growth factor receptor 2 (Homo sapiens) (UniProt P21802); conditions: Compound concentration 1000.0 nM
[15] = tested on: Receptor-type tyrosine-protein kinase FLT3 (Homo sapiens), P36888 [D835Y]; conditions: Compound concentration 1000.0 nM
[16] = target: Glycogen synthase kinase-3 alpha (Homo sapiens) (UniProt P49840); conditions: Compound concentration 1000.0 nM
[17] = target: Glycogen synthase kinase-3 beta (Homo sapiens) (UniProt P49841); conditions: Compound concentration 1000.0 nM
[18] = target: Tyrosine-protein kinase ITK/TSK (Homo sapiens) (UniProt Q08881); conditions: Compound concentration 1000.0 nM
[19] = target: Tyrosine-protein kinase JAK1 (Homo sapiens) (UniProt P23458); conditions: Compound concentration 1000.0 nM
[20] = tested on: Mast/stem cell growth factor receptor Kit (Homo sapiens), P10721 [V559D,V654A]; conditions: Compound concentration 1000.0 nM
[21] = target: Serine/threonine-protein kinase LATS2 (Homo sapiens) (UniProt Q9NRM7); conditions: Compound concentration 1000.0 nM
Chain of Serine/threonine-protein kinase LATS2 (Homo sapiens) (Q9NRM7 whole entry, the tested form may be a part): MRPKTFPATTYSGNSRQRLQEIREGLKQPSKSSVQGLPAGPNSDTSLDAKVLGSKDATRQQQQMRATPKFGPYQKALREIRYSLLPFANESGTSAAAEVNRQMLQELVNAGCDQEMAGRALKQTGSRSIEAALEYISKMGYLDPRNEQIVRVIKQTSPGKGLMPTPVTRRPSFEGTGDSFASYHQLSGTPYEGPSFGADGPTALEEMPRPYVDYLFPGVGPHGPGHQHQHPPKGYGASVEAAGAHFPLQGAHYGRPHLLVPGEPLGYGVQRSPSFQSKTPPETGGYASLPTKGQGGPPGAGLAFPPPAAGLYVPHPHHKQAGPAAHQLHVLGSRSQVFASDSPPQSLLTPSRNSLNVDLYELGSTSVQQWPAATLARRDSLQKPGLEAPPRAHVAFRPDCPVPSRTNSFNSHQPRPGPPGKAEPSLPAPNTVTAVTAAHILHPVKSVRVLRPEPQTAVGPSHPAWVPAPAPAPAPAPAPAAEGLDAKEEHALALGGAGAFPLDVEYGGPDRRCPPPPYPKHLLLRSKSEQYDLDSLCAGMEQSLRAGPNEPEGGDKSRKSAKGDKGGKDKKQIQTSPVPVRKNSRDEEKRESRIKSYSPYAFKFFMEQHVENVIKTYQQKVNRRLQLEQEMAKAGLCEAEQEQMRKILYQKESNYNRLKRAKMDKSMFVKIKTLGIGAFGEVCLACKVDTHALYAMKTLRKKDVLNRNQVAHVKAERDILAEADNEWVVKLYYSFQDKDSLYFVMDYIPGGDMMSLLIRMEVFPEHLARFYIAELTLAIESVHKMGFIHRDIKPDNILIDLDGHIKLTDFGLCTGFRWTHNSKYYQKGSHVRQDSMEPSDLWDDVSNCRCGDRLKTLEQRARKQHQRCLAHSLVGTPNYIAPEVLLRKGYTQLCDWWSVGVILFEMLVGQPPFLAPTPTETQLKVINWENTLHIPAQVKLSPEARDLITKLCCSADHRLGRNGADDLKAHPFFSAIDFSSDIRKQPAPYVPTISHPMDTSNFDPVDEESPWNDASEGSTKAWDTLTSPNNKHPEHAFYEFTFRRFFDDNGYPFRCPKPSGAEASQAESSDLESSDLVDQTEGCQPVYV

[22] = target: LIM domain kinase 2 (Homo sapiens) (UniProt P53671); conditions: Compound concentration 1000.0 nM
[23] = target: Leucine-rich repeat serine/threonine-protein kinase 2 (Homo sapiens) (UniProt Q5S007); conditions: Compound concentration 1000.0 nM
[24] = target: Mitogen-activated protein kinase kinase kinase kinase 2 (Homo sapiens) (UniProt Q12851); conditions: Compound concentration 1000.0 nM
Chain of Mitogen-activated protein kinase kinase kinase kinase 2 (Homo sapiens) (Q12851 whole entry): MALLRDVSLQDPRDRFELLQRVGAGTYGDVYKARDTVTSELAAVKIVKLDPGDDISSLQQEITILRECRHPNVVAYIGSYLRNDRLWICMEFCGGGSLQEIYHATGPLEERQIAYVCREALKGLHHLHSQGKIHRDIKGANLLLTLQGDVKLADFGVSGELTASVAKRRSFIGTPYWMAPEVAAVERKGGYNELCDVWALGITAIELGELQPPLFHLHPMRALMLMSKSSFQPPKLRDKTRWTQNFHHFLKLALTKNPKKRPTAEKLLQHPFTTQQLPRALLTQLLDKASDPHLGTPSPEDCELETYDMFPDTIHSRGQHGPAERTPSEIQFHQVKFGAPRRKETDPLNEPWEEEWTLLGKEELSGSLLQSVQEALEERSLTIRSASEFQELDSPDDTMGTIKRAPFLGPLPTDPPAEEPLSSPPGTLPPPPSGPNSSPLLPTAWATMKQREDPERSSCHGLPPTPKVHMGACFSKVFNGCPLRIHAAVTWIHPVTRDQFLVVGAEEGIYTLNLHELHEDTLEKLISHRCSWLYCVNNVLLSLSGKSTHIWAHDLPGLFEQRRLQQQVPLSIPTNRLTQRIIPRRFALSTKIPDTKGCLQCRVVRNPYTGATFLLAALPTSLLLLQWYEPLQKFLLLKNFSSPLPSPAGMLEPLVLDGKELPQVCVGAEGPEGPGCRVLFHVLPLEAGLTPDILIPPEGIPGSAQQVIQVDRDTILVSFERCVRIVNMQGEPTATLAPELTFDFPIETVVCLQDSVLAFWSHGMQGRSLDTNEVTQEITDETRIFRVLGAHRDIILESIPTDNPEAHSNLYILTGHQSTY

[25] = target: Serine/threonine-protein kinase MARK2 (Homo sapiens) (UniProt Q7KZI7); conditions: Compound concentration 1000.0 nM
[26] = target: MAP/microtubule affinity-regulating kinase 4 (Homo sapiens) (UniProt Q96L34); conditions: Compound concentration 1000.0 nM
[27] = target: Serine/threonine-protein kinase 4 (Homo sapiens) (UniProt Q13043); conditions: Compound concentration 1000.0 nM
[28] = target: Myosin light chain kinase family member 4 (Homo sapiens) (UniProt Q86YV6); conditions: Compound concentration 1000.0 nM
Chain of Myosin light chain kinase family member 4 (Homo sapiens) (Q86YV6 whole entry): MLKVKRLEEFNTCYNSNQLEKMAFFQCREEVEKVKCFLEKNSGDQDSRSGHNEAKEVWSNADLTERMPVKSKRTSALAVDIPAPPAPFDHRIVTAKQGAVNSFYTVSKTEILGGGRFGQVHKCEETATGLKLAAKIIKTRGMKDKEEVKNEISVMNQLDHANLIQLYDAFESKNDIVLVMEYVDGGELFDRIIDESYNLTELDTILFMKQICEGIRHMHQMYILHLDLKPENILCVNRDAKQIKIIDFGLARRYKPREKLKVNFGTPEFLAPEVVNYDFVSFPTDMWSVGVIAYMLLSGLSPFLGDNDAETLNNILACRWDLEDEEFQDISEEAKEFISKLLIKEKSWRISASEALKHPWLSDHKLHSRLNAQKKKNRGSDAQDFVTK

[29] = target: Serine/threonine-protein kinase 38 (Homo sapiens) (UniProt Q15208); conditions: Compound concentration 1000.0 nM
[30] = target: Serine/threonine-protein kinase Nek2 (Homo sapiens) (UniProt P51955); conditions: Compound concentration 1000.0 nM
Chain of Serine/threonine-protein kinase Nek2 (Homo sapiens) (P51955 whole entry): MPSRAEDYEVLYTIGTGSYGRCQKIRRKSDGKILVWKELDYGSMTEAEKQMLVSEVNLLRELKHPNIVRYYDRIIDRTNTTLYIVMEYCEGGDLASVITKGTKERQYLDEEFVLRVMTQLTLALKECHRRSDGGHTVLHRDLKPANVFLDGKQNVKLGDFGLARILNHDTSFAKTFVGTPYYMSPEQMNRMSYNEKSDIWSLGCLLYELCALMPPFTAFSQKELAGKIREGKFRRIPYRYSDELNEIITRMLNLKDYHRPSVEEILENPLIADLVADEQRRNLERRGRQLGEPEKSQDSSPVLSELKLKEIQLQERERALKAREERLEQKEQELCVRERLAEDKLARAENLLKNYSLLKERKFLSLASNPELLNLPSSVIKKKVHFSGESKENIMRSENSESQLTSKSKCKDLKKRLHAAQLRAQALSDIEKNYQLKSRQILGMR

[31] = target: Cyclin-dependent kinase 17 (Homo sapiens) (UniProt Q00537); conditions: Compound concentration 1000.0 nM
[32] = target: Phosphorylase b kinase regulatory subunit alpha, liver isoform (Homo sapiens) (UniProt P46019); conditions: Compound concentration 1000.0 nM
[33] = tested on: Phosphatidylinositol 4,5-bisphosphate 3-kinase catalytic subunit alpha isoform (Homo sapiens), P42336 [E542K]; conditions: Compound concentration 1000.0 nM
[34] = target: Serine/threonine-protein kinase pim-2 (Homo sapiens) (UniProt Q9P1W9); conditions: Compound concentration 1000.0 nM
[35] = target: Phosphatidylinositol 4-phosphate 5-kinase type-1 gamma (Homo sapiens) (UniProt O60331); conditions: Compound concentration 1000.0 nM
Chain of Phosphatidylinositol 4-phosphate 5-kinase type-1 gamma (Homo sapiens) (O60331 whole entry): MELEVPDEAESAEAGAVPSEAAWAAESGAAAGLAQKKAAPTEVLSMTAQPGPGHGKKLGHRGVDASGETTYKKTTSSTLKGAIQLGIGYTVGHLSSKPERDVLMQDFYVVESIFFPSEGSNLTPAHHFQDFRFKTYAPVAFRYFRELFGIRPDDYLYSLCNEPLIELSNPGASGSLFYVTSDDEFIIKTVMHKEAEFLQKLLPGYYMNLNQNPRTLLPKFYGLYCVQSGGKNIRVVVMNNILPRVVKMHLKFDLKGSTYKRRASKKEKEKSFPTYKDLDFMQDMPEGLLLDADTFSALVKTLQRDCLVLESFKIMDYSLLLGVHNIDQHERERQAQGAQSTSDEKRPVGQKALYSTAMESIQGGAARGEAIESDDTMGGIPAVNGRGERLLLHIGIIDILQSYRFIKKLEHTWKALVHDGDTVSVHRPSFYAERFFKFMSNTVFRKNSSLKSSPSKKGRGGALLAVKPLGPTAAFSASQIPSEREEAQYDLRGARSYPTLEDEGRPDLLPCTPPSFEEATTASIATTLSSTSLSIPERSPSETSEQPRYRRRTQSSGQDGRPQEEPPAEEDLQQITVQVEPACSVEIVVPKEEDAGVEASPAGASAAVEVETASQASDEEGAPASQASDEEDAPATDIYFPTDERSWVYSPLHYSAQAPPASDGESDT

[36] = target: Protein kinase C delta type (Homo sapiens) (UniProt Q05655); conditions: Compound concentration 1000.0 nM
[37] = target: Interferon-induced, double-stranded RNA-activated protein kinase (Homo sapiens) (UniProt P19525); conditions: Compound concentration 1000.0 nM
[38] = target: Ribosomal protein S6 kinase alpha-5 (Homo sapiens) (UniProt O75582); conditions: Compound concentration 1000.0 nM
[39] = target: Ribosomal protein S6 kinase alpha-1 (Homo sapiens) (UniProt Q15418); conditions: Compound concentration 1000.0 nM
[40] = target: Ribosomal protein S6 kinase alpha-2 (Homo sapiens) (UniProt Q15349); conditions: Compound concentration 1000.0 nM
[41] = target: High affinity nerve growth factor receptor (Homo sapiens) (UniProt P04629); conditions: Compound concentration 1000.0 nM
[42] = target: Tyrosine-protein kinase TXK (Homo sapiens) (UniProt P42681); conditions: Compound concentration 1000.0 nM
[43] = target: Non-receptor tyrosine-protein kinase TYK2 (Homo sapiens) (UniProt P29597); conditions: Compound concentration 1000.0 nM
[44] = target: Tyrosine-protein kinase receptor TYRO3 (Homo sapiens) (UniProt Q06418); conditions: Compound concentration 1000.0 nM
[45] = target: Kappa-type opioid receptor (Homo sapiens) (UniProt P41145); conditions: Compound concentration 10.0 uM
Chain of Kappa-type opioid receptor (Homo sapiens) (P41145 whole entry): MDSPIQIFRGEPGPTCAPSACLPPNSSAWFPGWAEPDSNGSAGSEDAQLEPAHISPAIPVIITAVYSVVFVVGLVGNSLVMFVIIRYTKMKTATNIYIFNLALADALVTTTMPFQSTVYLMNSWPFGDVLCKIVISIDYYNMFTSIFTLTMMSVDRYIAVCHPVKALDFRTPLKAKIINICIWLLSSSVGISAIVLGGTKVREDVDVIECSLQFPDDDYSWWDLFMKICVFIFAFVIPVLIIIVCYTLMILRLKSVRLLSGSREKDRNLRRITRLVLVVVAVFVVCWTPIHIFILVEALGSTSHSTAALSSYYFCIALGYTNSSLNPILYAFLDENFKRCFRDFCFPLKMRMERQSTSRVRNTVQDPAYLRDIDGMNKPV

SMILES: CCOCCn1cc(C(=O)Nc2ccc(-n3nc(-c4cccnc4)cc3C(F)(F)F)cn2)ccc1=O [BI 1935]
- residual activity [1]: 81%
- residual activity [2]: 84%
- activity at 10 µM [3]: 27%
- residual activity [4]: 100%
- residual activity [5]: 100%
- residual activity [6]: 100%
- residual activity [7]: 90%
- residual activity [8]: 100%
- residual activity [9]: 100%
- residual activity [10]: 100%
- residual activity [11]: 91%
- residual activity [12]: 94%
- residual activity [13]: 87%
- residual activity [14]: 49%
- residual activity [15]: 98%
- residual activity [16]: 100%
- residual activity [17]: 86%
- residual activity [18]: 83%
- residual activity [19]: 37%
- residual activity [20]: 100%
- residual activity [21]: 65%
- residual activity [22]: 100%
- residual activity [23]: 100%
- residual activity [24]: 76%
- residual activity [25]: 100%
- residual activity [26]: 100%
- residual activity [27]: 100%
- residual activity [28]: 100%
- residual activity [29]: 91%
- residual activity [30]: 100%
- residual activity [31]: 96%
- residual activity [32]: 100%
- residual activity [33]: 100%
- residual activity [34]: 100%
- residual activity [35]: 100%
- residual activity [36]: 100%
- residual activity [37]: 100%
- residual activity [38]: 100%
- residual activity [39]: 99%
- residual activity [40]: 89%
- residual activity [41]: 100%
- residual activity [42]: 81%
- residual activity [43]: 77%
- residual activity [44]: 0%
- inhibition [45]: 3.2%
